In PubChem BioAssay AID1549 (Sanford-Burnham Center for Chemical Genomics, 2009) one finds Kd data, which are given here for 71 compounds.

A word on the Kd: it is the equilibrium constant for the complex coming apart.

The source made the active and inactive calls. No rule for the calls is given here. Where a SMILES comes first, the peptide text is derived from it.

In the assay the target is Influenza A virus M2 proton channel (A/TW/4845/1999 H1N1). Briefly: NMR binding screen, influenza A virus M2 proton channel, Kd (AID 1549). Conditions: M2 protein.
As for `CC(=O)Oc1c(C)c(C)c2c(c1C)CCC(C)(CCCC(C)CCCC(C)CCCC(C)C)O2` (stereo unspecified), the Kd is > 4 mM (inactive). Under `COc1cc(O)ccc1C(C)=O` stands > 4 mM (inactive); under `C=C(C)C1CC=C(CO)CC1` (stereo unspecified), > 4 mM (inactive); under `CC1(C)CC2C1CC[C@]1(C)CCC3C(C(=O)O)CC(=O)O[C@@]32C1` (stereo partly specified), > 4 mM (inactive). For `Cc1ccn(S(=O)(=O)c2ccc(C(C)(C)C)cc2)n1`, the Kd is > 4 mM (inactive).

On to `COC(=O)CC1NC2CCCCC2NC1=O` (stereo unspecified), for which the Kd is > 4 mM (inactive). With `COc1cc(S(=O)(=O)N(C)C)ccc1F`, the Kd is > 4 mM (inactive). The value for `O=C1C2C3C=CC(C3)C2C(=O)N1CCCO` (stereo unspecified) was > 4 mM (inactive); that for `C[C@H](CCC(=O)O)[C@H]1CCC2C3C(CC[C@@]21C)[C@@]1(C)CC[C@@H](O)C[C@H]1C[C@@H]3O` (stereo partly specified) was > 4 mM (inactive); that for `Nc1nnc(Cc2ccc(Cl)cc2)s1` was > 4 mM (inactive).

For `Cn1cnc2c(=O)[nH]cc([N+](=O)[O-])c21`, the Kd was > 4 mM (inactive).

In the case of `CCC(=O)Nc1ccccc1NC(C)=O`, the Kd is > 4 mM (inactive). Regarding `O=C(O)C1CSC2(CCCCC2)N1` (stereo unspecified), the Kd was > 4 mM (inactive). For the compound `OCc1cc(F)cc2c1OCOC2`, the Kd is > 4 mM (inactive). As for `CC(O)(C(=O)O)c1ccccc1` (stereo unspecified), the Kd is > 4 mM (inactive). Take `O=C1NC(=S)N/C1=C\c1ccccc1F`: the Kd was > 4 mM (inactive). The value for `CCS(=O)(=O)N1CCN(c2ccccc2F)CC1` was > 4 mM (inactive); that for `CSc1nc(=O)[nH]c2c1CCC2` was > 4 mM (inactive).

In the case of `NC1CS(=O)(=O)CC1O` (stereo unspecified), the Kd is > 4 mM (inactive). Under `Fc1ccc(NC2=NCCS2)cc1Cl` stands > 4 mM (inactive); under `CC1(C)C(=O)[C@@H]2C[C@@]3(O)C4=CC(=O)O[C@@H](c5ccoc5)[C@]4(C)CCC3C(C)(C2=O)[C@H]1CC(=O)O` (stereo partly specified), > 4 mM (inactive); under `Cc1cc(NC(=O)c2ccc3c(c2)OCO3)no1`, > 4 mM (inactive). Under `Nc1ncnc2c1ncn2CCOc1ccccc1` stands > 4 mM (inactive); under `NC(=O)c1ccc(Cl)c(N2C(=O)CCC2=O)c1`, > 4 mM (inactive).

Take `NC12CC3CC(C1)CC(O)(C3)C2`: the Kd is > 4 mM (inactive). Consider `c1cncc(C(N2CCOCC2)N2CCOCC2)c1`, for which the Kd was > 4 mM (inactive). The value for `CC(=O)Oc1cc(OC(C)=O)c2c(c1)O[C@H](c1ccc(OC(C)=O)c(OC(C)=O)c1)[C@H](OC(C)=O)C2` was > 4 mM (inactive); that for `CC(C)=CCOc1c2occc2cc2ccc(=O)oc12` was > 4 mM (inactive); that for `CC(=O)NC(=S)Nc1nc2ccccc2n1C(C)=O` was > 4 mM (inactive). `COc1ccc(Cl)c(S(=O)(=O)N2CCCC2)c1`: the Kd was > 4 mM (inactive). For the compound `NC(=O)NC1NC(=O)NC1=O` (stereo unspecified), the Kd was > 4 mM (inactive). Take `CC(=O)N[C@@H](CC(=O)O)C(=O)N[C@@H](CCC(=O)O)C(=O)O` (Ac-Asp-Glu-OH): the Kd was > 4 mM (inactive). The value for `CCCCCc1c2c(cc(O)c1C(=O)O)OC(=O)c1c(cc(OC)cc1C(=O)CCCC)O2` was > 4 mM (inactive); that for `OC12CC3CC(CC(C3)C1)C2` was > 4 mM (inactive); that for `O=C(O)CCc1nc2ccccc2[nH]c1=O` was > 4 mM (inactive).

`CN(C)c1nc(N2CCOCC2)nc(N2CCOCC2)n1`: the Kd was > 4 mM (inactive).

In the case of `CC(=O)c1cc2c(s1)SCC(=O)N2`, the Kd is > 4 mM (inactive).

In the case of `CC1(C)C2CC(=O)[C@]3(C)C(CC[C@@]4(C)[C@H](c5ccoc5)OC(=O)[C@H]5O[C@]543)[C@@]2(C)C(=O)C[C@H]1O` (stereo partly specified), the Kd was > 4 mM (inactive). With `Cc1nc2c(=O)[nH]c3ccccc3c2o1`, the Kd was > 4 mM (inactive). Take `N#CCN1C(=O)c2ccccc2S1(=O)=O`: the Kd is > 4 mM (inactive). The value for `O=C(c1ccco1)N1CCCN(C(=O)c2ccco2)CC1` was > 4 mM (inactive); that for `CC(C)=CC1C(C(=O)O)C1(C)C` (stereo unspecified) was > 4 mM (inactive). The value for `CN1CCN(CC(=O)Nc2ccccc2)CC1` was > 4 mM (inactive); that for `Cc1ccc(C)c(C(=O)n2cnnc2N)c1` was > 4 mM (inactive); that for `O=C(Nc1c[nH]c(=O)[nH]c1=O)c1ccccc1F` was > 4 mM (inactive). With `CNCc1ccco1`, the Kd was > 4 mM (inactive).

On to `O=C(O)c1ccnn1-c1ccccc1`, for which the Kd is > 4 mM (inactive). With `C=C[C@@](C)(O)CCC1C(=C)C[C@H](OC(C)=O)C2C(C)(C)CCCC12C` (stereo partly specified), the Kd was > 4 mM (inactive). Under `O=C(O)C1CC(=O)N(Cc2cccs2)C1` (stereo unspecified) stands > 4 mM (inactive); under `Cc1noc(C)c1C(=O)N1CCN(c2ncccn2)CC1`, > 4 mM (inactive). For the compound `O=C(Nc1ccc2ccccc2c1)c1cnccn1`, the Kd is > 4 mM (inactive). Under `COC(=O)c1c(C)c2c(c(C)c1O)OC(=O)c1c(C)c(Cl)c(O)c(Cl)c1O2` stands > 4 mM (inactive); under `Oc1cnc2ccccc2c1CN1CCOCC1`, > 4 mM (inactive).

With `CC1(C)CC2C1CCC1(C)OC2(C)CCC1O` (stereo unspecified), the Kd is > 4 mM (inactive). Under `CS(C)=C1C(=O)NC(=O)N(c2ccccc2)C1=O` stands > 4 mM (inactive); under `CC(=O)O[C@@H]1CC2C(C)(C)C(=O)C3OC3[C@]2(C)C2CC[C@@]3(C)[C@H](c4ccoc4)OC(=O)C4OC43[C@@]21C` (stereo partly specified), > 4 mM (inactive).

On to `COc1ccc(CC(=O)c2ccc(O)cc2O)cc1`, for which the Kd was > 4 mM (inactive). The value for `O=C1CC(=O)N(c2ccccc2F)C(=S)N1` was > 4 mM (inactive); that for `CN(C)S(=O)(=O)c1ccccc1C#N` was > 4 mM (inactive).

Take `CCCCN1C(=O)C2CC/C(=N/O)CC2C1=O` (stereo unspecified): the Kd is > 4 mM (inactive). With `COc1ccc(-c2cc(=O)c3c(O)c(OC)c(O[C@H]4O[C@H](CO[C@@H]5O[C@@H](C)[C@H](O)[C@@H](O)[C@H]5O)[C@@H](O)[C@H](O)[C@H]4O)cc3o2)cc1`, the Kd is > 4 mM (inactive). The value for `CSc1ccc(S(=O)(=O)N2CCCC2)cc1` was > 4 mM (inactive); that for `Cn1c(CO)nc2cc(N)ccc21` was > 4 mM (inactive); that for `Brc1ccc(-c2nc(-c3ccncc3)no2)o1` was > 4 mM (inactive). Under `NC(=O)CSc1nnc(-c2ccncc2)o1` stands > 4 mM (inactive); under `CC1=CC(C)C(C(=O)O)C(C(=O)N2CCN(C)CC2)C1` (stereo unspecified), > 4 mM (inactive).

Regarding `Cc1cc(C(F)(F)F)n2nc(C(=O)O)c(Cl)c2n1`, the Kd was > 4 mM (inactive). On to `COCC(=O)NC1CC(C)(C)NC(C)(C)C1`, for which the Kd was > 4 mM (inactive).

Consider `O=C(Nc1ccccc1CO)c1ccccc1F`, for which the Kd was > 4 mM (inactive).

As to `COc1cc(CNC(=O)CCCC/C=C/C(C)C)ccc1O`, the Kd was > 4 mM (inactive).

`Cc1c(C)n2c(SCC(N)=O)nnc2[nH]c1=O`: the Kd is > 4 mM (inactive).
